Measurements as given in US8106075B2, “Insecticides” (Syngenta Crop Protection, Inc., priority 2004, dated 2012).

What was measured:
Spodoptera littoralis = assay: B10a: Systemic Insecticide Test for Spodoptera littoralis (cotton leafworm); format: in vivo; settings: systemic via maize seedlings, 1st instar larvae
Method: […] Seedlings are allowed to grow for six days. Subsequently leaves are cut and placed in a Petri dish (5 cm diameter), inoculated with twelve to fifteen 1st instar S. littoralis larvae and incubated for four days in a growth chamber (25° C., 50% r.h., 18:6 L:D photo period). Number of alive insects are counted and percentage of dead calculated. Tests were conducted with one replicate.

Heliothis virescens = assay: B10b: Insecticide Test for Heliothis virescens (tobacco budworm); format: in vivo; settings: for Percent larvae showing growth reduction (compared to control): eggs on artificial diet topically treated, one week; for mortality at 0.05 ppm / mortality at 0.2 ppm / mortality at 0.8 ppm / mortality at 3 ppm: Heliothis virescens, topical, 168 h, read-out: Percent larvae mortality
Method: 50-60 newly laid H. virescens eggs were placed on artificial diet in Petri dishes (5 cm diameter) and topically treated with 0.8 ml solution of compounds at the following rates: 3, 0.8, 0.2, 0.05. Petri dishes are maintained at 26±2° C., 50±10% r.h. in a dark room and assessment conducted one week after application (two replicates/treatment). Larvae mortality and effects on larvae growth were compared to the control.

Plutella xylostella = assay: B10c: Insecticide Test for Plutella xylostella (diamond back moth); format: in vivo; settings: sprayed Chinese cabbage leaf disks, L3 larvae
Method: Chinese cabbage plants were sprayed with insecticide at 3, 0.8, 0.2 and 0.05 ppm. Five cm diameter leaf disks were cut and placed in a Petri dish containing 6 ml agar (0.8%). Five P. xylostella larvae L3 were introduced into Petri dishes and kept at 26±2° C., 50±10% r.h. in a dark room (two replicates per treatment). […]

Diabrotica balteata = assay: Example B2: activity against Diabrotica balteata, sprayed maize seedlings; settings: in Zea mays, 144 h, read-out: percentage reduction in the population (% activity)

SMILES | Death rate (%) after 4 days (Spodoptera littoralis; 0.2 ppm) [%] | Death rate (%) after 4 days (Spodoptera littoralis; 0.8 ppm) [%] | Death rate (%) after 4 days (Spodoptera littoralis; 3 ppm) [%] | Percent larvae showing growth reduction (compared to control) (Heliothis virescens; 0.05 ppm) [%] | Percent larvae showing growth reduction (compared to control) (Heliothis virescens; 0.2 ppm) [%] | Percent larvae showing growth reduction (compared to control) (Heliothis virescens; 0.8 ppm) [%] | Percent larvae showing growth reduction (compared to control) (Heliothis virescens; 3 ppm) [%] | mortality at 0.05 ppm (Heliothis virescens) [%] | mortality at 0.2 ppm (Heliothis virescens) [%] | mortality at 0.8 ppm (Heliothis virescens) [%] | mortality at 3 ppm (Heliothis virescens) [%] | Death rate (%) (Plutella xylostella; 0.05 ppm) | Death rate (%) (Plutella xylostella; 0.2 ppm) | Death rate (%) (Plutella xylostella; 0.8 ppm) | Death rate (%) (Plutella xylostella; 3 ppm) | inhibition at 400 ppm (Diabrotica balteata) [%]
Cc1cccc(C(=O)NCC2CO2)c1NC(=O)c1cc(C(F)(F)F)nn1-c1ncccc1Cl (stereo not shown) [Comp. 566, reference compound] | 0 | 0 | 0 | 0 | 0 | 0 | 0 | 0 | 0 | 0 | 0 | 0 | 10 | 5 | 25 | –
Cc1cc(Cl)cc(C(=O)NCC2CCO2)c1NC(=O)c1cc(C(F)(F)F)nn1-c1ncccc1Cl (stereo not shown) [Compound P25, N-(4-chloro-2-methyl-6-[([oxetan-2-ylmethyl]amino)carbonyl]phenyl)-1-(3-chloro-2-pyridinyl)-3-(trifluoromethyl)-1H-pyrazole-5-carboxamide] | – | – | – | – | – | – | – | – | – | – | – | – | – | – | – | > 80
Cc1cccc(C(=O)NCC2CC2)c1NC(=O)c1cc(C(F)(F)F)nn1-c1ncccc1Cl [Compound P41] | 20 | 80 | 100 | 0 | 45 | 100 | 100 | 0 | 0 | 0 | 0 | 0 | 0 | 80 | 60 | –
